Experimental data reported in article PMC13357423 (Frontiers in Microbiology, 2026).
In brackets after ≈: the same amount, converted by molar mass. Entries after “also recorded” stand apart in the source; their conditions may differ. Read-outs that look alike come from different tables or passages of the source.

Columns and labels:
[1] = Effect of tyloxapol on TBAJ-587 recovery in ST broth without bacteria; type: physicochemical; settings: ST broth with vs without tyloxapol, no bacteria, polystyrene flasks, 28 days
Procedure: A low (0.16 mg/L) and a high concentration (1.6 mg/L) were tested and samples taken and quantified at 0, 1, 10 and 28 days after compound addition. Parallel conditions with propranolol (2 μM and 0.2 μm) were included as a drug control; two time-points were sampled for quantification at days 0 and 28 after compound addition. All 648 samples were measured in technical duplicates and verapamil was used as internal standard.

[2] = test system: regrowth TKA isolates (Mtb H37Rv); experiment: microbe, parasite or virus in culture; type: cell-based, Mycobacterium tuberculosis; settings: for MIC: Mycobacterium tuberculosis
Mtb H37Rv [3] = experiment: Dose response time kill assays (TKA), CFU enumeration; type: cell-based, Mycobacterium tuberculosis
M. tuberculosis = test system: M. tuberculosis; design: method as in Lounis et al. (2016); settings: polypropylene plates in comparison with polystyrene; ref Lounis et al. (2016); cited from earlier work
Mtb H37Rv [4] = experiment: microbe, parasite or virus in culture; type: cell-based; settings: Mycobacterium tuberculosis, read-out: MIC BDQ values in six carbon sources
Mtb Rv0678 RAVs = test system: Mtb Rv0678 RAVs; design: method as in Sonnenkalb et al., 2023; Villellas et al., 2017; settings: Rv0678 RAVs in baseline isolates of MDR-TB patients; ref Sonnenkalb et al., 2023; Villellas et al., 2017; cited from earlier work
[5] = concentrations equal or higher than 5x MIC

## CC(C)NCC(O)COc1cccc2ccccc12 (stereo not shown) [Propranolol, propranolol, reference compound]
[1]
  effect of 0.05% tyloxapol on recovery: did not affect its recovery

## COc1cc([C@](O)(CCN(C)C)[C@@H](c2cc3cc(Br)ccc3nc2OC)c2cccc(OC)c2F)cc(OC)n1 [TBAJ-587]
[2]
  MIC increase compared to the wild-type baseline: 4 fold
[2]; H37RV
  MIC: 0.125 mg/L (≈ 0.203 µM)
[2]; read-out: MIC values for TBAJ-587, all regrowth isolates
  MIC: 0.125 to 0.25 mg/L (≈ 0.203 to 0.407 µM)
Mtb H37Rv [3]; 1x MIC and 2x MIC
  effect in TKA: bacteriostatic effect
Mtb H37Rv [3]; 1x MIC and 2x MIC, day 28
  bacterial regrowth: resumed growth after 28 days; also recorded: bacterial regrowth by day 28
Mtb H37Rv [3]; [5]
  bacterial regrowth after 28 days of treatment: without bacterial regrowth
  time to cleared cultures (bacterial counts under the limit of quantification): ≤ 7 days
Mtb H37Rv [3]; concentrations equal to and above 5x MIC
  effect in TKA: bactericidal effect
[1]
  effect of 0.05% tyloxapol on recovery: higher TBAJ-587 recovery

## COc1nc2ccc(Br)cc2cc1[C@@H](c1ccccc1)[C@@](O)(CCN(C)C)c1cccc2ccccc12 [BDQ, bedaquiline]
M. tuberculosis
  increase in the MIC: 4 fold
Mtb H37Rv [4]
  MIC: 0.063 to 0.25 mg/L (≈ 0.113 to 0.45 µM)
Mtb Rv0678 RAVs
  increase in MIC: 2–8 fold
